The source of these data is patent US9115143B2, “Substituted indole derivatives as gamma secretase modulators” (Janssen Pharmaceuticals, Inc., priority 2011, dated 2015).

As usually defined, the IC50 is the midpoint of a concentration-inhibition curve. Read a low IC50 as inhibition by little substance.

The subject of experiment [1] is Aβ42. In words: Screening for γ-secretase-modulating activity: Aβ42 in supernatant of SKNBE2 cells carrying hAPP 695 wild type (Alphalisa). The class given is cell-based, human. The conditions noted are these: overnight incubation, Alphalisa on supernatant. An outline of the steps: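 SKNBE2 human neuroblastoma cells expressing wild-type hAPP 695 (10^4/well) were incubated overnight at 37 °C, 5% CO2 with compound at several concentrations. Supernatant Aβ42 and Aβtotal measured by AlphaLISA sandwich immunoassays; IC50 from 4-parameter fit of percent of untreated control versus log concentration.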

The subject of experiment [2] is Aβ38. In words: In vivo efficacy B-2a: brain soluble Aβ38 in non-transgenic rodents, ELISA. On the set-up: species or system mouse. The conditions noted are these: dose 30 mg/kg oral dosing, brain soluble fraction, untreated animals (Ctrl) set at 100; for response vs control in vivo at 30 mg/kg: Mus musculus, po, read-out: Aβ38 (% vs Ctrl)_Mean; for Aβ38 (% vs Ctrl)_Mean: 30 mg/kg. From the text: Aβ38 increasing agents can be administered in any standard form using any standard method. For example, but not limited to, Aβ38 increasing agents can be in the form of liquid, tablets or capsules that are taken orally or by injection.
To determine whether acute administration of an Aβ38 increasing agents would increase Aβ38 levels in vivo, non-transgenic rodents, e.g. mice or rats were used. Animals treated with the Aβ38 increasing agents were examined and compared to those untreated or treated with vehicle and brain levels of soluble Aβ38 and total Aβ were quantitated by standard techniques, for example, using ELISA. Treatment periods varied from hours (h) to days and were adjusted based on the results of the Aβ38 increase once a time course of onset of effect could be established.
A typical protocol for measuring Aβ38 increase in vivo is shown but it is only one of many variations that could be used to optimize the levels of detectable Aβ. For example, Aβ38 increasing agents were formulated in 20% of Captisol® (a sulfobutyl ether of β-cyclodextrin) in water or 20% hydroxypropyl β cyclodextrin. The Aβ38 increasing agents were administered as a single oral dose or by any acceptable route of administration to overnight fasted animals. After 4 h, the animals were sacrificed and Aβ38 levels were analysed.
Blood was collected by decapitation and exsanguinations in EDTA-treated collection tubes. Blood was centrifuged at 1900 g for 10 minutes (min) at 4° C. and the plasma recovered and flash frozen for later analysis. The brain was removed from the cranium and hindbrain. The cerebellum was removed and the left and right hemisphere were separated. The left hemisphere was stored at −18° C. for quantitative analysis of test compound levels. The right hemisphere was rinsed with phosphate-buffered saline (PBS) buffer and immediately frozen on dry ice and stored at −80° C. until homogenization for biochemical assays.
Mouse brains from non-transgenic animals were resuspended in 8 volumes of 0.4% DEA (diethylamine)/50 mM NaCl containing protease inhibitors (Roche-11873580001 or 04693159001) per gram of tissue, e.g. for 0.158 g brain, add 1.264 mL of 0.4% DEA. All samples were homogenized in the FastPrep-24 system (MP Biomedicals) using lysing matrix D (MPBio #6913-100) at 6 m/s for 20 seconds. Homogenates were centrifuged at 20800×g for 5 min and supernatants collected. Supernatants were centrifuged at 221.300×g for 50 min. The resulting high speed supernatants were then transferred to fresh eppendorf tubes. Nine parts of supernatant were neutralized with 1 part 0.5 M Tris-HCl pH 6.8 and used to quantify Aβtotal and Aβ38.
To quantify the amount of Aβtotal and Aβ38 in the soluble fraction of the brain homogenates, Enzyme-Linked-Immunosorbent-Assays were used. Briefly, the standards (a dilution of synthetic Aβ1-40 and Aβ1-38, ANASPEC) were prepared in 1.5 mL Eppendorf tube in Ultraculture, with final concentrations ranging from 10000 to 0.3 pg/mL. The samples and standards were co-incubated with HRPO-labelled N-terminal antibody for Aβ38 detection and with the biotinylated mid-domain antibody 4G8 for Aβtotal detection. 50 μl of conjugate/sample or conjugate/standards mixtures were then added to the antibody-coated plate (the capture antibodies selectively recognize the C-terminal end of Aβ38, antibody J&JPRD/Aβ38/5, for Aβ38 detection and the N-terminus of Aβ, antibody JRF/rAβ/2, for Aβtotal detection). The plate was allowed to incubate overnight at 4° C. in order to allow formation of the antibody-amyloid complex. Following this incubation and subsequent wash steps the ELISA for Aβ38 quantification was finished by addition of Quanta Blu fluorogenic peroxidase substrate according to the manufacturer's instructions (Pierce Corp., Rockford, Ill.). A reading was performed after 10 to 15 min (excitation 320 nm/emission 420 nm). […]

Where [3] appears, read: Homo sapiens, SKNBE2, SKNBE2 human neuroblastoma cells carrying hAPP 695 wild type.
Setting [4] is: SKNBE2 human neuroblastoma cells carrying hAPP 695 wild type.

`COc1c(-c2cnn(C)c2)ccc2[nH]c(-c3cn4c(n3)C(c3ccc(F)cc3C)OCC4)cc12` (stereo not shown) [Compound 96, 8-(4-fluoro-2-methylphenyl)-5,6-dihydro-2-[4-methoxy-5-(1-methyl-1H-pyrazol-4-yl)-1H-indol-2-yl]-8H-imidazo[2,1-c][1,4]oxazine] came in with an IC50 in experiment [1] (setting [3]) of 0.074 µM. In addition, the response vs control in vivo at 30 mg/kg in experiment [2] amounted to 124%.
Take `COc1c(C#N)ccc2[nH]c(-c3cn4c(n3)C(c3ccc(F)cc3C)OCC4)cc12` (stereo not shown) [Compound 46, 2-[8-(4-fluoro-2-methylphenyl)-5,6-dihydro-8H-imidazo[2,1-c][1,4]oxazin-2-yl]-4-methoxy-1H-indole-5-carbonitrile]: in experiment [1] (setting [4]), the IC50 was found to be 0.054 µM. For the same compound, the “Aβ38 (% vs Ctrl)_Mean” value in experiment [2] was 109 % vs Ctrl.
The corresponding values for `Cc1cc(F)ccc1C1CCCn2cc(-c3cc4cc(C#N)ccc4[nH]3)nc21` (stereo not shown) [Compound 63, 2-[8-(4-fluoro-2-methylphenyl)-5,6,7,8-tetrahydroimidazo[1,2-a]pyridin-2-yl]-1H-indole-5-carbonitrile] are 4.47 µM and 98 % vs Ctrl.
On to `Cc1cn(-c2ccc3[nH]c(-c4nc5n(n4)CCCC5c4ccc(F)cc4C)nc3c2)cn1` (stereo not shown) [Compound 176, 8-(4-fluoro-2-methylphenyl)-5,6,7,8-tetrahydro-2-[5-(4-methyl-1H-imidazol-1-yl)-1H-benzimidazol-2-yl]-[1,2,4]triazolo[1,5-a]pyridine], for which the IC50 in experiment [1] (setting [4]) was found to be 0.089 µM. The response vs control in vivo at 30 mg/kg in experiment [2] came out at 93%.
The like results for `COc1c(C#N)ccc2[nH]c(-c3nc4n(n3)CCOC4c3ccc(F)cc3C)cc12` (stereo not shown) [Compound 111, 2-[8-(4-fluoro-2-methylphenyl)-5,6-dihydro-8H-[1,2,4]triazolo[5,1-c][1,4]oxazin-2-yl]-4-methoxy-1H-indole-5-carbonitrile] were, in that order, 0.093 µM and 107%.
In experiment [1] (setting [4]), `Cc1ccccc1C1CCCn2nc(-c3cc4cc(C#N)ccc4[nH]3)nc21` (stereo not shown) [Compound 13, 2-[5,6,7,8-tetrahydro-8-(2-methylphenyl)[1,2,4]triazolo[1,5-a]pyridin-2-yl]-1H-indole-5-carbonitrile] gave a concentration for half-maximal inhibition (IC50) of 0.072 µM. The response vs control in vivo at 30 mg/kg in experiment [2] was 116%.
In the case of `Cc1cc(F)ccc1C1CCCn2nc(-c3cc4cc(C#N)ccc4[nH]3)nc21` (stereo not shown) [Compound 9, 2-[8-(4-fluoro-2-methylphenyl)-5,6,7,8-tetrahydro[1,2,4]triazolo[1,5-a]pyridin-2-yl]-1H-indole-5-carbonitrile], the half-maximal inhibitory concentration (IC50) in experiment [1] (setting [4]) is 0.138 µM. For the same compound, the “Aβ38 (% vs Ctrl)_Mean” value in experiment [2] came to 87 % vs Ctrl.
The compound `COc1c(C#N)ccc2[nH]c(-c3nc4n(n3)CCOC4c3c(F)cccc3Cl)cc12` (single isomer, unassigned) [Compound 117, 2-[8-(2-chloro-6-fluorophenyl)-5,6-dihydro-8H-[1,2,4]triazolo[5,1-c][1,4]oxazin-2-yl]-4-methoxy-1H-indole-5-carbonitrile] yielded a 50% inhibitory concentration (IC50) in experiment [1] (setting [4]) of 0.037 µM. Also, the response vs control in vivo at 30 mg/kg in experiment [2] worked out at 106%.
`COc1c(C#N)ccc2[nH]c(-c3nc4n(n3)CCOC4c3ccccc3C(F)(F)F)cc12` (stereo not shown) [Compound 55, 2-[5,6-dihydro-8-[2-(trifluoromethyl)phenyl]-8H-[1,2,4]triazolo[5,1-c][1,4]oxazin-2-yl]-4-methoxy-1H-indole-5-carbonitrile] gave an IC50 in experiment [1] (setting [3]) of 0.072 µM. In addition, the response vs control in vivo at 30 mg/kg in experiment [2] came to 130%.
`COc1c(C#N)ccc2[nH]c(-c3nc4n(n3)CCOC4c3ccc(F)cc3C)cc12` (stereo not shown) [Compound 114, 2-[8-(4-fluoro-2-methylphenyl)-5,6-dihydro-8H-[1,2,4]triazolo[5,1-c][1,4]oxazin-2-yl]-4-methoxy-1H-indole-5-carbonitrile] yielded a 50% inhibitory concentration (IC50) in experiment [1] (setting [4]) of 0.032 µM. Besides, the “Aβ38 (% vs Ctrl)_Mean” value in experiment [2] is 88 % vs Ctrl.
In experiment [1] (setting [3]), `COc1c(C#N)ccc2[nH]c(-c3cn4c(n3)C(c3ccc(F)cc3C)CCC4)cc12` (stereo not shown) [Compound 74, 2-[8-(4-fluoro-2-methylphenyl)-5,6,7,8-tetrahydroimidazo[1,2-a]pyridin-2-yl]-4-methoxy-1H-indole-5-carbonitrile] gave an IC50 of 0.112 µM. Also, the response vs control in vivo at 30 mg/kg in experiment [2] turned out to be 117%.
Turning to `COc1c(C#N)ccc2[nH]c(-c3cn4c(n3)C(c3ccc(F)cc3C)OCC4)cc12` (stereo not shown) [Compound 47, 2-[8-(4-fluoro-2-methylphenyl)-5,6-dihydro-8H-imidazo[2,1-c][1,4]oxazin-2-yl]-4-methoxy-1H-indole-5-carbonitrile], in experiment [1] (setting [4]), the IC50 was found to be 0.023 µM. In addition, in experiment [2], the “Aβ38 (% vs Ctrl)_Mean” value came out at 87 % vs Ctrl.
In experiment [1] (setting [4]), `Cc1cc(F)ccc1C1CCCn2nc(-c3cc4nc(-c5cnn(C)c5)ccc4[nH]3)nc21` (stereo not shown) [Compound 69, 8-(4-fluoro-2-methylphenyl)-5,6,7,8-tetrahydro-2-[5-(1-methyl-1H-pyrazol-4-yl)-1H-pyrrolo[3,2-b]pyridin-2-yl]-[1,2,4]triazolo[1,5-a]pyridine] returned an IC50 of 0.117 µM. Also, in experiment [2], the response vs control in vivo at 30 mg/kg is 106%.
The corresponding values for `Cc1cn(-c2ccc3[nH]c(-c4nc5n(n4)CCCC5c4ccc(F)cc4C)cc3n2)cn1` (stereo not shown) [Compound 65, 8-(4-fluoro-2-methylphenyl)-5,6,7,8-tetrahydro-2-[5-(4-methyl-1H-imidazol-1-yl)-1H-pyrrolo[3,2-b]pyridin-2-yl]-[1,2,4]triazolo[1,5-a]pyridine] are 0.046 µM and 101%.
In the case of `N#Cc1ccc2[nH]c(-c3nc4n(n3)CCCC4c3ccccc3C(F)(F)F)cc2c1` (stereo not shown) [Compound 18, 2-[5,6,7,8-tetrahydro-8-[2-(trifluoromethyl)phenyl][1,2,4]triazolo[1,5-a]pyridin-2-yl]-1H-indole-5-carbonitrile], the IC50 in experiment [1] (setting [3]) is 0.117 µM. The response vs control in vivo at 30 mg/kg in experiment [2] is 87%.
The corresponding values for `Cc1cn(-c2ccc3[nH]c(-c4nc5n(n4)CCOC5c4ccccc4C(F)(F)F)cc3c2)cn1` (stereo not shown) [Compound 37, 5,6-dihydro-2-[5-(4-methyl-1H-imidazol-1-yl)-1H-indol-2-yl]-8-[2-(trifluoromethyl)phenyl]-8H-[1,2,4]triazolo[5,1-c][1,4]oxazine] are 0.048 µM and 118%.
The like results for `N#Cc1ccc2[nH]c(-c3cn4c(n3)C(c3ccccc3Cl)CCC4)cc2c1` (stereo not shown) [Compound 16, 2-[8-(2-chlorophenyl)-5,6,7,8-tetrahydroimidazo[1,2-a]pyridin-2-yl]-1H-indole-5-carbonitrile] were, in that order, 0.112 µM and 120%.
